Test results published in patent publication US5889148A, “Antibiotic peptides” (priority 1995, dated 1999).
Non-standard residues stand in square brackets, D forms with d. No end group written: not given here. Aib = CC(C)(N)C(=O)O

How the values were obtained:
red blood cells = assay type: cell-based, human
Method: To 190 μl of the red blood cell-containing solution thus prepared, was added 10 μl of peptide solution prior to the incubation at 37° C. for 30 min. After incubation, centrifugation followed to obtain supernatant. Then, a level (%) of cell lysis caused by peptides was determined by the examination of absorbance at 576 nm (see: Table 12). At this moment, TEDFK, TEDFK-1A, M5, M6, M19, M22 and M32 were chosen as peptide fragments of Tenecin, and an antibiotic peptide KLK (see: Natori, S. et al., J. Biochem., 117(6):1312-1316(1995)) and a commercially available antibiotic, Amphotericin B(Sigma, USA) known to lyse a red blood cell were employed as controls, respectively.

[1] = test system: Staphylococcus aureus (ATCC 6538); assay: MIC test, antibacterial activity; assay type: cell-based
Method: (§1) Antibacterial and antifungal activities of the peptides were determined by employing MIC test as follows:
(§2) To determine antifungal activity, a test organism Candida albicans (ATCC 36232) was cultured on Sabouraud dextrose agar plate for 24 to 48 hrs, and colonies thus grown were suspended on Sabouraud dextrose medium(Gibco, USA) to have O.D.530 =0.5(3×10^6 cells) and further diluted with 100-fold to have O.D.530 =0.005(3×10^4 cells). 100 μl of Candida albicans culture thus prepared was pipetted on 96-well microplates which had already contained 100 μl of a serially diluted peptide solution.
Antibacterial activity of peptide was determined analogously as above, with an exception that Staphylococcus aureus (ATCC 6538) selected as a test organism was cultured on M-3 medium(Gibco, USA) at 37° C. and cell number was adjusted to 2×10^8 cells before 100-fold dilution.

[2] = test system: Candida albicans (ATCC 36232); assay: MIC test, antifungal activity; assay type: cell-based
Method: as §1, §2

[3] = Table 8, TEDFK derivatives of group 1
[4] = Table 4, addition of an amino acid to N-terminal of TEDF
[5] = Table 9, TEDFK derivatives of group 2
[6] = Table 11, enantiomer, retro-inverso, D-amino acid derivatives of M22
[7] = Table 3, addition of an amino acid to N-terminal of TED
[8] = Table 1, peptide fragments of Tenecin

Row | Compound | MIC S. aureus [1, 3] | MIC C. albicans [2, 3] | MIC S. aureus [1, 7] | MIC C. albicans [2, 7] | further results
1 | C[C@@H]1[C@H](O)[C@@H](C)/C=C/C=C/C=C/C=C/C=C/C=C/C=C/[C@H](O[C@@H]2O[C@H](C)[C@@H](O)[C@H](N)[C@@H]2O)C[C@@H]2O[C@](O)(C[C@@H](O)C[C@@H](O)[C@H](O)CC[C@@H](O)C[C@@H](O)CC(=O)O[C@H]1C)C[C@H](O)[C@H]2C(=O)O [Amphotericin B] | – | – | – | – | cell lysis (in words) (red blood cells): cause cell lysis
2 | YCNGKRVCVCRKK--NH2 (YCNGKRVCVCRKK-NH2; cysteine pairing not given here) [M15] | 6.35 µg/mL | 6.25 µg/mL | – | – | –
3 | KFYCNGKRVCVCR--NH2 [TEDFK] (KFYCNGKRVCVCR-NH2; cysteine pairing not given here) | 6.25 µg/mL | 6.25 µg/mL | – | – | MIC S. aureus [1, 4]: 5 µg/mL; MIC S. aureus [1, 5]: 6.25 µg/mL; MIC S. aureus [1, 6]: 6.25 µg/mL; MIC C. albicans [2, 4]: 3 µg/mL; MIC against C. albicans ([2]; Table 5, modification of TEDFK): 3 µg/mL; MIC against C. albicans ([2]; Table 6, substitution of Cys in TEDFK with Aib): 3 µg/mL; MIC C. albicans [2, 5]: 6.25 µg/mL; MIC against C. albicans ([2]; Table 10, TEDFK derivatives of group 3): 6.25 µg/mL; MIC C. albicans [2, 6]: 6.25 µg/mL
4 | KFY[Aib]KGKRVCVCR-NH2 (cysteine pairing not given here) [M17] | 6.35 µg/mL | 6.25 µg/mL | – | – | –
5 | KKYCNXRVCVCR--NH2 [M4] | 3.16 µg/mL | 3.12 µg/mL | – | – | –
6 | KFYCNWKRVCVCR--NH2 (KFYCNWKRVCVCR-NH2; cysteine pairing not given here) [M30] | 12.7 µg/mL | 12.5 µg/mL | – | – | –
7 | FYCNGKRVCVCR--NH2 (FYCNGKRVCVCR-NH2; cysteine pairing not given here) [TEDF] | – | – | 5 µg/mL | 10 µg/mL | MIC S. aureus [1, 4]: 5 µg/mL; MIC C. albicans [2, 4]: 10 µg/mL
8 | WYCNGKRVCVCR--NH2 (WYCNGKRVCVCR-NH2; cysteine pairing not given here) [TEDW] | – | – | 20 µg/mL | 20 µg/mL | –
9 | KPYCNGKRVCVCR--NH2 (KPYCNGKRVCVCR-NH2; cysteine pairing not given here) [M2] | 6.35 µg/mL | 6.25 µg/mL | – | – | –
10 | kfycngkrvcvcr-NH2 [Enantiomer of TEDFK] | – | – | – | – | MIC S. aureus [1, 6]: 6.35 µg/mL; MIC C. albicans [2, 6]: 6.35 µg/mL
11 | AYCNGKRVCVCR--NH2 (AYCNGKRVCVCR-NH2; cysteine pairing not given here) [TEDA] | – | – | 10 µg/mL | 10 µg/mL | –
12 | YCNGKRVCVCR--NH2 (YCNGKRVCVCR-NH2; cysteine pairing not given here) [TED] | – | – | 10 µg/mL | 10 µg/mL | MIC S. aureus [1, 8]: 10 µg/mL; antifungal activity (in words) [2]: excellent antifungal activity; MIC C. albicans [2, 8]: 10 µg/mL; MIC against C. albicans ([2]; Table 2, modification of N-terminal residues of TED): 10 µg/mL
13 | LFYCNGKRVCVCR--NH2 (LFYCNGKRVCVCR-NH2; cysteine pairing not given here) [TEDFL] | – | – | – | – | MIC S. aureus [1, 4]: 30 µg/mL; MIC C. albicans [2, 4]: 100 µg/mL
